Experimental data reported in patent US20230278972A1, “SUBSTITUTED HALOALKYL SULFONANILIDE HERBICIDES” (FMC Corporation, priority 2020, published 2023).

Experiments:
Assay type in all cases: in vivo
corn (Zea mays) = assay: Test A postemergence, corn; details: Postemergence; for Corn plant response rating: 500 g ai/ha, visual injury vs untreated controls after approx. 10 days
How it was run: (§1)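 Whole-plant herbicidal screen in pots of loam blended with sand. Sprays used a surfactant-containing, non-phytotoxic solvent vehicle. Timing was preemergence soil-directed at planting or postemergence at the one- to two-leaf stage (2–10 cm).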

[1] = test system: barnyardgrass (Echinochloa crus-galli); assay: Test A postemergence, barnyardgrass; details: Postemergence; for Barnyardgrass plant response rating: 500 g ai/ha, visual injury vs untreated controls after approx. 10 days
How it was run: (§2)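 Greenhouse pot test in a loam–sand blend; compounds delivered in a non-phytotoxic solvent carrying a surfactant, applied either as a directed spray to soil at seeding or over seedlings 2 to 10 cm high with one to two leaves.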

kochia (Bassia scoparia) [2] = assay: Test A postemergence, kochia; details: Postemergence; for Kochia plant response rating: 500 g ai/ha, visual injury vs untreated controls after approx. 10 days
How it was run: as §1

[3] = test system: Foxtail, Giant (giant foxtail, Setaria faberi); assay: Test A preemergence, Foxtail, Giant; details: Preemergence; for Plant response rating, Foxtail, Giant: 0 to 100 scale (0 no effect, 100 complete control); for Foxtail, Giant plant response rating: 125 g ai/ha, visual injury on 0 to 100 scale (0 no effect, 100 complete control), approximately 10 days
How it was run: as §1

[4] = test system: Ryegrass, Italian (Italian ryegrass, Lolium multiflorum); assay: Test A preemergence, Ryegrass, Italian; details: Preemergence; for Plant response rating, Ryegrass, Italian: 0 to 100 scale (0 no effect, 100 complete control); for Ryegrass, Italian plant response rating: 125 g ai/ha, visual injury on 0 to 100 scale (0 no effect, 100 complete control), approximately 10 days
How it was run: as §1

[5] = test system: pigweed (Amaranthus retroflexus); assay: Test A postemergence, pigweed; details: Postemergence; for Pigweed plant response rating: 500 g ai/ha, visual injury vs untreated controls after approx. 10 days
How it was run: as §1

[6] = test system: wheat (Triticum aestivum); assay: Test A postemergence, wheat; details: Postemergence; for Wheat plant response rating: 500 g ai/ha, visual injury vs untreated controls after approx. 10 days
How it was run: as §2

kochia (Bassia scoparia) [7] = assay: Test A preemergence, kochia; details: Preemergence; for Plant response rating, Kochia: 0 to 100 scale (0 no effect, 100 complete control); for Kochia plant response rating: 125 g ai/ha, visual injury on 0 to 100 scale (0 no effect, 100 complete control), approximately 10 days
How it was run: as §1

[8] = test system: pigweed (Amaranthus retroflexus); assay: Test A preemergence, pigweed; details: for Plant response rating, Pigweed: 0 to 100 scale (0 no effect, 100 complete control); for Pigweed plant response rating: 125 g ai/ha, visual injury on 0 to 100 scale (0 no effect, 100 complete control), approximately 10 days
How it was run: as §2

[9] = test system: ragweed (common ragweed, Ambrosia artemisiifolia); assay: Test A preemergence, ragweed; details: Preemergence; for Plant response rating, Ragweed: 0 to 100 scale (0 no effect, 100 complete control); for Ragweed plant response rating: 125 g ai/ha, visual injury on 0 to 100 scale (0 no effect, 100 complete control), approximately 10 days
How it was run: as §1

[10] = test system: Ryegrass, Italian (Italian ryegrass, Lolium multiflorum); assay: Test A postemergence, Ryegrass, Italian; details: Postemergence; for Ryegrass, Italian plant response rating: 500 g ai/ha, visual injury vs untreated controls after approx. 10 days
How it was run: as §1

[11] = test system: Foxtail, Giant (giant foxtail, Setaria faberi); assay: Test A postemergence, Foxtail, Giant; details: Postemergence; for Foxtail, Giant plant response rating: 500 g ai/ha, visual injury vs untreated controls after approx. 10 days
How it was run: as §1

[12] = test system: blackgrass (Alopecurus myosuroides); assay: Test A postemergence, blackgrass; details: Postemergence; for Blackgrass plant response rating: 500 g ai/ha, visual injury vs untreated controls after approx. 10 days
How it was run: as §1

[13] = test system: barnyardgrass (Echinochloa crus-galli); assay: Test A preemergence, barnyardgrass; details: Preemergence; for Plant response rating, Barnyardgrass: 0 to 100 scale (0 no effect, 100 complete control); for Barnyardgrass plant response rating: 125 g ai/ha, visual injury on 0 to 100 scale (0 no effect, 100 complete control), approximately 10 days
How it was run: as §1

[14] = test system: galium (catchweed bedstraw, Galium aparine); assay: Test A postemergence, galium; details: Postemergence; for Galium plant response rating: 500 g ai/ha, visual injury vs untreated controls after approx. 10 days
How it was run: as §2

[15] = test system: ragweed (common ragweed, Ambrosia artemisiifolia); assay: Test A postemergence, ragweed; details: Postemergence; for Ragweed plant response rating: 500 g ai/ha, visual injury vs untreated controls after approx. 10 days
How it was run: as §1

[16] = 31 g ai/ha, visual injury on 0 to 100 scale (0 no effect, 100 complete control), approx. 10 days
[17] = 125 g ai/ha, 0 to 100 scale (0 no effect, 100 complete control)
[18] = 31 g ai/ha, visual injury, approx. 10 days
[19] = 0 to 100 scale (0 no effect, 100 complete control)

SMILES | Plant response rating, Corn (corn (Zea mays); [17]) | Plant response rating, Barnyardgrass [1, 17] | Plant response rating, Kochia (kochia (Bassia scoparia) [2]; [17]) | Foxtail, Giant plant response rating [3] | Ryegrass, Italian plant response rating [4] | Plant response rating, Pigweed [5, 17] | Plant response rating, Wheat [6, 17] | Kochia plant response rating (kochia (Bassia scoparia) [7]) | Pigweed plant response rating [8] | Ragweed plant response rating [9] | Plant response rating, Ryegrass, Italian [10, 17] | Plant response rating, Foxtail, Giant [11, 17] | Plant response rating, Blackgrass [12, 17] | Barnyardgrass plant response rating [13] | Plant response rating, Galium [14, 17] | Plant response rating, Ragweed [15, 17] | Corn plant response rating (corn (Zea mays); [19]) | Barnyardgrass plant response rating [1, 19] | Kochia plant response rating (kochia (Bassia scoparia) [2]; [19]) | Plant response rating, Foxtail, Giant ([3]; 500 g ai/ha) | other results
Cc1cc(C)c(N(S(=O)(=O)C(F)(F)F)S(=O)(=O)C(F)(F)F)cc1N1CC2(CCOCC2)OC1=O [Compound 157] | 20 | 60 | 70 | 100 | 60 | 100 | 0 | 90 | 100 | 90 | 30 | 30 | 30 | 100 | 100 | 90 |  |  |  |  | Plant response rating, Corn (corn (Zea mays); [16]): 20; Plant response rating, Barnyardgrass [1, 16]: 20; Plant response rating, Kochia (kochia (Bassia scoparia) [2]; [16]): 10; Plant response rating, Foxtail, Giant [3, 18]: 80; Plant response rating, Ryegrass, Italian [4, 18]: 40; Plant response rating, Pigweed [5, 16]: 90; Plant response rating, Wheat [6, 16]: 0; Plant response rating, Kochia (kochia (Bassia scoparia) [7]; [18]): 50; Plant response rating, Pigweed [8, 18]: 100; Plant response rating, Ragweed [9, 18]: 40; Plant response rating, Ryegrass, Italian [10, 16]: 0; Plant response rating, Foxtail, Giant [11, 16]: 10; Plant response rating, Blackgrass [12, 16]: 30; Plant response rating, Barnyardgrass [13, 18]: 30; Plant response rating, Galium [14, 16]: 90; Plant response rating, Ragweed [15, 16]: 70
Cc1cc(C)c(N(S(=O)(=O)C(F)(F)F)S(=O)(=O)C(F)(F)F)cc1C1=NOC2(CCCCCC2)C1 [Compound 158] | 0 | 0 | 20 | 90 | 30 | 30 | 0 | 70 | 50 | 30 | 0 | 0 | 20 | 30 | 70 | 10 | 20 | 20 | 30 | 100 | Plant response rating, Ryegrass, Italian ([4]; 500 g ai/ha): 100; Pigweed plant response rating [5, 19]: 80; Wheat plant response rating [6, 19]: 0; Plant response rating, Kochia (kochia (Bassia scoparia) [7]; 500 g ai/ha): 80; Plant response rating, Pigweed ([8]; 500 g ai/ha): 100; Plant response rating, Ragweed ([9]; 500 g ai/ha): 40; Ryegrass, Italian plant response rating [10, 19]: 0; Foxtail, Giant plant response rating [11, 19]: 20; Blackgrass plant response rating [12, 19]: 0; Plant response rating, Barnyardgrass ([13]; 500 g ai/ha): 100; Galium plant response rating [14, 19]: 90; Ragweed plant response rating [15, 19]: 20
Cc1cc(C)c(C(=O)N2CCCOCC2)cc1NS(=O)(=O)C(F)(F)F [Compound 160] | 0 | 30 | 10 | 90 | 50 | 70 | 0 | 20 | 90 | 10 | 0 | 0 | 0 | 80 | 80 | 70 | 10 | 80 | 30 | 100 | Plant response rating, Ryegrass, Italian ([4]; 500 g ai/ha): 60; Pigweed plant response rating [5, 19]: 90; Wheat plant response rating [6, 19]: 20; Plant response rating, Kochia (kochia (Bassia scoparia) [7]; 500 g ai/ha): 90; Plant response rating, Pigweed ([8]; 500 g ai/ha): 100; Plant response rating, Ragweed ([9]; 500 g ai/ha): 90; Ryegrass, Italian plant response rating [10, 19]: 0; Foxtail, Giant plant response rating [11, 19]: 60; Blackgrass plant response rating [12, 19]: 10; Plant response rating, Barnyardgrass ([13]; 500 g ai/ha): 100; Galium plant response rating [14, 19]: 90; Ragweed plant response rating [15, 19]: 80
Cc1cc(C)c(N(S(=O)(=O)C(F)(F)F)S(=O)(=O)C(F)(F)F)cc1C(=O)N1CCC(C#N)CC1 [Compound 161] | 50 | 80 | 50 | 80 | 100 | 80 | 0 | 90 | 100 | 90 | 20 | 20 | 0 | 100 | 90 | 70 |  |  |  |  | Plant response rating, Corn (corn (Zea mays); [16]): 10; Plant response rating, Barnyardgrass [1, 16]: 40; Plant response rating, Kochia (kochia (Bassia scoparia) [2]; [16]): 10; Plant response rating, Foxtail, Giant [3, 18]: 40; Plant response rating, Ryegrass, Italian [4, 18]: 70; Plant response rating, Pigweed [5, 16]: 70; Plant response rating, Wheat [6, 16]: 0; Plant response rating, Kochia (kochia (Bassia scoparia) [7]; [18]): 30; Plant response rating, Pigweed [8, 18]: 70; Plant response rating, Ragweed [9, 18]: 90; Plant response rating, Ryegrass, Italian [10, 16]: 20; Plant response rating, Foxtail, Giant [11, 16]: 0; Plant response rating, Blackgrass [12, 16]: 0; Plant response rating, Barnyardgrass [13, 18]: 20; Plant response rating, Galium [14, 16]: 30; Plant response rating, Ragweed [15, 16]: 40
Cc1cc(C)c(C(=O)N2CCC(C#N)CC2)cc1NS(=O)(=O)C(F)(F)F [Compound 162] | 20 | 80 | 10 | 90 | 70 | 60 | 50 | 40 | 100 | 30 | 30 | 30 | 20 | 60 | 100 | 60 |  |  |  |  | Plant response rating, Corn (corn (Zea mays); [16]): 20; Plant response rating, Barnyardgrass [1, 16]: 40; Plant response rating, Kochia (kochia (Bassia scoparia) [2]; [16]): 10; Plant response rating, Foxtail, Giant [3, 18]: 100; Plant response rating, Ryegrass, Italian [4, 18]: 40; Plant response rating, Pigweed [5, 16]: 50; Plant response rating, Wheat [6, 16]: 30; Plant response rating, Kochia (kochia (Bassia scoparia) [7]; [18]): 30; Plant response rating, Pigweed [8, 18]: 100; Plant response rating, Ragweed [9, 18]: 0; Plant response rating, Ryegrass, Italian [10, 16]: 0; Plant response rating, Foxtail, Giant [11, 16]: 10; Plant response rating, Blackgrass [12, 16]: 20; Plant response rating, Barnyardgrass [13, 18]: 0; Plant response rating, Galium [14, 16]: 80; Plant response rating, Ragweed [15, 16]: 60
Cc1cc(C)c(C2=NOC3(CCC(C)(C)CC3)C2)cc1NS(=O)(=O)C(F)(F)F [Compound 163] | 0 | 0 | 10 | 50 | 80 | 60 | 0 | 0 | 50 | 20 | 0 | 0 | 20 | 90 | 70 | 0 | 60 | 80 | 60 | 90 | Plant response rating, Ryegrass, Italian ([4]; 500 g ai/ha): 100; Pigweed plant response rating [5, 19]: 80; Wheat plant response rating [6, 19]: 0; Plant response rating, Kochia (kochia (Bassia scoparia) [7]; 500 g ai/ha): 80; Plant response rating, Pigweed ([8]; 500 g ai/ha): 100; Plant response rating, Ragweed ([9]; 500 g ai/ha): 60; Ryegrass, Italian plant response rating [10, 19]: 30; Foxtail, Giant plant response rating [11, 19]: 10; Blackgrass plant response rating [12, 19]: 30; Plant response rating, Barnyardgrass ([13]; 500 g ai/ha): 100; Galium plant response rating [14, 19]: 90; Ragweed plant response rating [15, 19]: 30
Cc1cc(C)c(N(S(=O)(=O)C(F)(F)F)S(=O)(=O)C(F)(F)F)cc1C(=O)N(C)CC1CC1 [Compound 169] | 50 | 40 | 20 | 20 | 50 | 40 | 0 | 0 | 60 | 40 | 10 | 10 | 0 | 30 | 80 | 60 | 90 | 90 | 50 | 90 | Plant response rating, Ryegrass, Italian ([4]; 500 g ai/ha): 100; Pigweed plant response rating [5, 19]: 50; Wheat plant response rating [6, 19]: 0; Plant response rating, Kochia (kochia (Bassia scoparia) [7]; 500 g ai/ha): 30; Plant response rating, Pigweed ([8]; 500 g ai/ha): 80; Plant response rating, Ragweed ([9]; 500 g ai/ha): 80; Ryegrass, Italian plant response rating [10, 19]: 30; Foxtail, Giant plant response rating [11, 19]: 40; Blackgrass plant response rating [12, 19]: 20; Plant response rating, Barnyardgrass ([13]; 500 g ai/ha): 100; Galium plant response rating [14, 19]: 90; Ragweed plant response rating [15, 19]: 90
